# Patent publication US12622906B2, “Treatment and prognosis of pancreatic cancer” (Cambridge Enterprise Limited, priority 2019, dated 2026)
# Legend:
# [1] = system: fibroblasts and macrophages; assay: Viability of non-cancerous cells treated with CCR1 antagonist; format: cell-based; details: compared with vehicle control
# PDAC cells = assay: 3D in vitro assay of invasion, PDAC cells co-cultured with BMDM (IncuCyte Zoom, NeuroTrack); format: cell-based, murine; details: 3D co-culture of PDAC cells with BMDM; pre-treatment 24 hours or treatment at time of co-culture
# Experimental: Cell-matrix cultures were performed by seeding PDAC cells onto wells pre-coated with 1 mg/mL Matrix Growth Factor Reduced Matrigel (Becton Dickinson). To observe cell invasion through Matrigel, plates were placed into IncuCyte Zoom (Essen Bioscience) with the software set to capture images every 3 hours in green and fluorescent protein (GFP/RFP)/Bright Field (or Phase Contrast).
# For co-cultures, mCherry-labelled PDAC cells were mixed 1:1 with ZsGreen-labelled macrophages, typically primary BMDM unless otherwise noted. Co-cultures were seeded and kept as subconfluent cultures for 48-96 hours in either 2D or 3D conditions.
# To quantify the invasive capacity of PDAC cells, 3D in vitro invasion assays were quantified using software provided by Essen Bioscience, NeuroTrack. […] Unlike high-content imaging systems, which require fixation, staining, and endpoint analysis of cells, the algorithm measured live-cell dynamics. […] Once parameters were defined, they were applied to all 3D in vitro invasion assays for quantification.
# The NeuroTrack software measures fluorescent-labelled cells. […] In this method, only PDAC cells that have invaded out of 3D structures are counted if they have a fluorescent mCherry label present in their nucleus. Data is plotted with number of nuclei counted on the y-axis and time on the x-axis. […]
# CCR1 expression = CCR1 expression in PDAC cells after prolonged co-culture with BMDM (qRT-PCR, flow cytometry); format: cell-based, murine; details: PDAC cells co-cultured with BMDM; by qRT-PCR and flow cytometry
# Experimental: Culture conditions for PDAC and BMDM cell lines used in this study are described above. For co-cultures, mCherry-labelled PDAC cells were mixed 1:1 with ZsGreen-labelled macrophages, typically primary BMDM unless otherwise noted. Co-cultures were seeded and kept as subconfluent cultures for 48-96 hours in either 2D or 3D conditions.
# Total RNA was isolated and purified from cells using Qiazol reagent and miRNeasy mini kit (Qiagen). cDNA was synthesized using the High Capacity RNA-to-cDNA kit (ABI) according to manufacturer's instructions. qRT-PCR was performed using Power SYBR Green PCR Master Mix (ABI) on the TaqMan 7900 (ABI). Relative expression levels were defined using the ΔΔCt method and normalizing to 18S rRNA and/or GAPDH.
# Pre-treatment: PDAC cells and BMDM were pre-treated with CCR1 antagonists 24 hours prior to the start of the experiment, harvested and then seeded according to the co-culture method previously described for the duration of the experiment.
# Treatment at time of co-culture: PDAC cells and BMDM were seeded according to the co-culture method as previously described and CCR1 antagonists were treated at the time of seeding and allowed to incubate for the duration of the experiment. […]
SMILES,viability of fibroblasts and macrophages [1],macrophage-mediated pro-invasive phenotype of PDAC cells (PDAC cells),induction of CCR1 expression due to prolonged co-culture (CCR1 expression)
"C[C@@H]1CN(Cc2ccc(F)cc2)CCN1C(=O)COc1ccc(Cl)cc1NC(N)=O [BX-471, (2R)-1-[[2-[(Aminocarbonyl)amino]-4-chlorophenoxy]acetyl]-4-[(4-fluorophenyl)methyl]-2-methylpiperazine]",just as viable as cell treated with vehicle control,striking ability to rein in the effect of macrophages to confer functional pro-invasive abilities to PDAC cells,–
"CC[N@+]1(C/C2=C/CCCCCC2)CC[C@@H](NC(=O)C2c3cc(Cl)ccc3Oc3ccc(Cl)cc32)CC1.[I-] [J113863, 1,4-cis-1-(1-cycloocten-1-ylmethyl)-4-[[(2,7-dichloro-9H-xanthen-9-yl)carbonyl]amino]-1-ethylpiperidinium iodide]",–,striking ability to rein in the effect of macrophages to confer functional pro-invasive abilities to PDAC cells,blunting the induction of CCR1 expression
